Assay [1] deals with EGFR (human) (UniProt P00533). As to conditions: a431.
Assay [2] addresses EGFR (human), P00533 [Antiproliferation of H195 Cells Having Overexpressed EGFR T790 Mutant Kinase].
For assay [3], the target named is EGFR (human) (UniProt P00533).
The target in assay [4] is EGFR (human), P00533 [Assessment of EGFR T790 Mutant Kinase Activity].

pIC50: −log10 of the molar value.

EGFR (human), P00533 [Antiproliferation of H195 Cells Having Overexpressed EGFR T790 Mutant Kinase], sequence (P00533 whole entry, looked up, change not shown): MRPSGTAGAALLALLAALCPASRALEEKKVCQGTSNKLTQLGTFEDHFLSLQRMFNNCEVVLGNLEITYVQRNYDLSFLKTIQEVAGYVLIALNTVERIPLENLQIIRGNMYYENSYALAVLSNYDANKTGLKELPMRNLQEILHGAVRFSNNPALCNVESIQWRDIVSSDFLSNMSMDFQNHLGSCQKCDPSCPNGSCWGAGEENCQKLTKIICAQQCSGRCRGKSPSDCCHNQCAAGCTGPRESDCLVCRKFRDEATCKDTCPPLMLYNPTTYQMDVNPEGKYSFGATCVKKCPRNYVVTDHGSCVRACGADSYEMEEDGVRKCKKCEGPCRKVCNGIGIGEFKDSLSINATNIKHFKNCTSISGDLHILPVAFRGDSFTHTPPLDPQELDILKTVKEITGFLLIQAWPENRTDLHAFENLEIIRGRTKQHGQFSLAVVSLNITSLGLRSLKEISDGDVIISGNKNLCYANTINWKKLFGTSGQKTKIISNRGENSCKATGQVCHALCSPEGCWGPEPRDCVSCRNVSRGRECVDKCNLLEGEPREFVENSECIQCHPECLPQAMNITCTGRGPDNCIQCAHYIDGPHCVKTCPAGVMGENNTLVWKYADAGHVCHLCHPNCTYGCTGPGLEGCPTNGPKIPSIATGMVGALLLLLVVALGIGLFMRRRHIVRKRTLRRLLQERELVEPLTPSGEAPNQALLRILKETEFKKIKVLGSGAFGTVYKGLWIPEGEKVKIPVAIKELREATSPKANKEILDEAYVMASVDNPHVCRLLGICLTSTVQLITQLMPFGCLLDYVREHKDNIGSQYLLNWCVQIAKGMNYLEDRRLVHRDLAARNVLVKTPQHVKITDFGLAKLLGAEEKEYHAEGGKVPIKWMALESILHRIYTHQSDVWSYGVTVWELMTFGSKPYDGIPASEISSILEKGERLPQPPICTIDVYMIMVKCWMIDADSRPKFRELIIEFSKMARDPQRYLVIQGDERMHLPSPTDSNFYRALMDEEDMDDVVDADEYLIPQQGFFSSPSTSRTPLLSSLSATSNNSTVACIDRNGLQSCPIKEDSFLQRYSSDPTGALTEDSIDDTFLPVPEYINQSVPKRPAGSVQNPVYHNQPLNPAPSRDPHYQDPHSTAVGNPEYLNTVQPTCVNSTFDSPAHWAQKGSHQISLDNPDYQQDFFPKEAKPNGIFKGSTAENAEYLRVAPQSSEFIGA
EGFR (human), sequence (P00533 whole entry, looked up): as the sequence (P00533 whole entry, looked up, change not shown) above
EGFR (human), P00533 [Assessment of EGFR T790 Mutant Kinase Activity], sequence (P00533 whole entry, looked up, change not shown): as above

Turning to `C=CC(=O)N1CCC(Oc2cc3c(Nc4cccc(Br)c4)ncnc3cc2OC)CC1`, the values for the negative logarithm of the IC50 (pIC50) (at EGFR (human) [1]; in assay [2]) were 9.00 and 7.02, respectively.

As for `C=CC(=O)N1CC[C@H](Oc2cc3c(Nc4ccc(F)c(Cl)c4F)ncnc3cc2OC)C[C@H]1C(=O)NCCOC`, the pIC50 against EGFR (human) [1] was 8.47; in assay [2], 7.96.

For the compound `C=CC(=O)N1CC[C@H](Oc2cc3c(Nc4ccc(F)c(Cl)c4F)ncnc3cc2OC)C1`, the pIC50 at EGFR (human) [1] was 8.40; against EGFR (human) [3], 8.52; in assay [2], 7.10.

For `COc1cc2ncnc(Nc3cccc(Cl)c3F)c2cc1OC1CCN(C(=O)CO)CC1`, the pIC50 against EGFR (human) [1] is 7.41; against EGFR (human) [3] it was 6.69.

Regarding `C=CC(=O)N1CC(Oc2cc3c(N[C@H](C)c4ccccc4)ncnc3cc2OC)C1`, the negative logarithm of the IC50 (pIC50) against EGFR (human) [1] was 8.15; in assay [2] it was 6.81.

For `C=CC(=O)N1CCC(Oc2cc3c(Nc4ccc(F)c(Cl)c4)ncnc3cc2OC)CC1`, the pIC50 at EGFR (human) [1] was 7.77; in assay [2], 7.80.

Consider `C=CC(=O)N1CCC(Oc2cc3c(Nc4cccc(C)c4)ncnc3cc2OC)CC1`, for which the values for the negative logarithm of the IC50 (pIC50) (at EGFR (human) [1]; in assay [2]) were 9.00 and 6.63, respectively.

On to `C=CC(=O)N1CC[C@H](Oc2cc3c(N[C@H](C)c4ccccc4)ncnc3cc2OC)C1`, for which the pIC50 is 8.10 against EGFR (human) [1] and 6.78 in assay [2].

Take `C=CC(=O)N1CC[C@H](Oc2cc3c(Nc4ccc(F)c(Cl)c4F)ncnc3cc2OC)C[C@H]1C(=O)NCCO`: the pIC50 at EGFR (human) [1] was 8.27; in assay [2] it was 7.41.

As for `C=C(NC(C)=O)C(=O)N1CC(Oc2cc3c(Nc4ccc(F)c(Cl)c4F)ncnc3cc2OC)C1`, the pIC50 is 8.51 against EGFR (human) [1] and 7.30 in assay [2].

Turning to `C=C(CN(C)C)C(=O)N1CC(Oc2cc3c(Nc4ccc(F)c(Cl)c4F)ncnc3cc2OC)C1`, the pIC50 was 7.39 against EGFR (human) [1] and 7.96 in assay [2].

For `C=C(CN1CCOCC1)C(=O)N1CC(Oc2cc3c(Nc4ccc(F)c(Cl)c4F)ncnc3cc2OC)C1`, the pIC50 is 8.82 against EGFR (human) [1] and 8.10 in assay [2].

Take `C=CC(=O)N1CC[C@H](Oc2cc3c(Nc4ccc(F)c(Cl)c4F)ncnc3cc2OC)C[C@H]1C(=O)NCCS(C)(=O)=O`: the negative-log IC50 (pIC50) on EGFR (human) [1] was 8.66; in assay [2], 7.30.

As to `COc1cc2ncnc(Nc3ccc(F)c(Cl)c3F)c2cc1OC1CN(C(=O)/C=C\Cl)C1`, the pIC50 is 8.62 against EGFR (human) [1] and 7.72 in assay [2].

As for `C=CC(=O)N1CCC(Oc2cc3c(Nc4ccc(Br)c(C)c4)ncnc3cc2OC)CC1`, the values for the pIC50 (against EGFR (human) [1]; in assay [2]) were 8.22 and 7.32, respectively.

As to `C=CC(=O)N1CC[C@@H](Oc2cc3c(Nc4ccc(F)c(Cl)c4F)ncnc3cc2OC)C[C@@H]1C(N)=O`, the pIC50 at EGFR (human) [1] was 9.10; in assay [2], 8.28.

Regarding `C=CC(=O)N1CC[C@H](Oc2ccc3ncnc(Nc4ccc(F)c(Cl)c4F)c3c2)C1`, the pIC50 is 8.30 against EGFR (human) [1] and 6.38 in assay [2].

Regarding `C=CC(=O)N1CCC(Oc2cc3c(Nc4ccc(F)c(Cl)c4F)ncnc3cc2OCCOC)CC1`, the pIC50 against EGFR (human) [1] was 8.40; in assay [2], 7.33.

As to `C=CC(=O)N1CC[C@H](Oc2cc3c(Nc4ccc(Br)c(Cl)c4F)ncnc3cc2OC)C1`, the pIC50 was 8.30 against EGFR (human) [1] and 7.26 in assay [2].

For the compound `C=CC(=O)N1CC[C@H](Oc2cc3c(Nc4ccc(F)c(Cl)c4F)ncnc3cc2OC)C[C@H]1C(=O)NCCSC`, the pIC50 against EGFR (human) [1] was 8.62; in assay [2], 8.30.

Regarding `C=CC(=O)N1CC[C@H](Oc2cc3c(Nc4ccc(F)c(Cl)c4F)ncnc3cc2OC)C[C@H]1C(N)=O`, the pIC50 is 8.52 at EGFR (human) [1] and 8.28 in assay [2].

With `C=CC(=O)N1CCC(Oc2cc3c(Nc4cccc(C=C)c4)ncnc3cc2OC)CC1`, the pIC50 against EGFR (human) [1] is 8.72; in assay [2], 7.57.

For `C=CC(=O)N1CC(Oc2cc3c(Nc4ccc(F)c(Cl)c4F)ncnc3cc2OC)C1`, the pIC50 was 9.52 against EGFR (human) [1] and 8.82 in assay [2].

For `C=CC(=O)N1CC[C@H](Oc2cc3c(Nc4ccc(F)c(Cl)c4F)ncnc3cc2OC)C[C@H]1C(=O)NCCN(C)C`, the results for the pIC50 (at EGFR (human) [1]; in assay [2]) were 8.24 and 7.52, respectively.

Turning to `C=CC(=O)N1CCC(Oc2cc3c(Nc4ccc(F)c(Cl)c4F)ncnc3cc2OC)CC1`, the pIC50 in assay [4] is 7.62.

Consider `C=CC(=O)N1CCC(Oc2cc3c(Nc4cccc(Cl)c4F)ncnc3cc2OC)CC1`, for which the pIC50 against EGFR (human) [1] is 8.70; in assay [2], 7.66.

For `C=CC(=O)N1CC[C@@H](Oc2cc3c(Nc4ccc(F)c(Cl)c4F)ncnc3cc2OC)C[C@@H]1C(=O)NC`, the pIC50 against EGFR (human) [1] is 8.54; in assay [2] it was 8.59.

Regarding `C=CC(=O)N1CC(Oc2cc3c(Nc4cccc(Cl)c4F)ncnc3cc2OC)C1`, the pIC50 against EGFR (human) [1] is 8.80; in assay [2], 8.05.

On to `C=CC(=O)N1CCC(Oc2cc3c(Nc4cccc([N+](=O)[O-])c4)ncnc3cc2OC)CC1`, for which the negative logarithm of the IC50 (pIC50) against EGFR (human) [1] was 7.96.

Regarding `COc1cc2ncnc(Nc3ccc(F)c(Cl)c3F)c2cc1O[C@H]1CCN(C(=O)/C=C/CN2CCOCC2)C1`, on EGFR (human) [1], the pIC50 was 7.07. This pIC50 is 0.89 log units lower than that of the compound before.

For `C=CC(=O)N1CC[C@@H](Oc2cc3c(Nc4ccc(Cl)c(Cl)c4F)ncnc3cc2OC)C[C@@H]1C(N)=O`, the results for the negative logarithm of the IC50 (pIC50) (at EGFR (human) [1]; in assay [2]) were 9.10 and 8.96, respectively.

The compound `C=CC(=O)NCCOc1cc2c(Nc3ccc(F)c(Cl)c3F)ncnc2cc1OC` showed a pIC50 on EGFR (human) [1] of 6.16.

Compound `COc1cc2ncnc(Nc3cccc(Cl)c3F)c2cc1O[C@H]1CCN(C(=O)/C=C/CN(C)C)C1` had a negative logarithm of the IC50 (pIC50) on EGFR (human) [1] of 8.10.

For the compound `C=CC(=O)N1CC(Oc2cc3c(Nc4cccc(Cl)c4)ncnc3cc2OC)C1`, the values for the pIC50 (on EGFR (human) [1]; in assay [2]) were 8.80 and 7.75, respectively.

On EGFR (human) [1], `C=CC(=O)N1CCC(Oc2cc3c(Nc4ccc(Cl)c(C)c4)ncnc3cc2OC)CC1` showed a negative logarithm of the IC50 (pIC50) of 7.03.

`COc1cc2ncnc(Nc3ccc(F)c(Cl)c3F)c2cc1OC1CN(C(=O)/C=C\CN(C)C)C1`: the pIC50 against EGFR (human) [1] was 7.82. This pIC50 lies 0.79 log units higher than the previous one.

`C=C(CN(C)C)C(=O)N1CCC(Oc2cc3c(Nc4ccc(Cl)c(Cl)c4F)ncnc3cc2OC)CC1` showed a negative-log IC50 (pIC50) at EGFR (human) [1] of 8.40.

As to `CNC(=O)/C=C/C(=O)N1CCC(Oc2cc3c(Nc4ccc(F)c(Cl)c4F)ncnc3cc2OC)CC1`, the pIC50 against EGFR (human) [1] is 7.32.

Compound `C=CC(=O)N1CCC(Oc2cc3c(Nc4ccc(Cl)c(C#N)c4)ncnc3cc2OC)CC1` showed a pIC50 against EGFR (human) [1] of 7.46.

As for `C=C(CO)C(=O)N1CCC(Oc2cc3c(Nc4ccc(Cl)c(Cl)c4F)ncnc3cc2OC)CC1`, at EGFR (human) [1], the pIC50 is 7.36.

`COC(=O)/C=C\C(=O)N1CCC(Oc2cc3c(Nc4ccc(Cl)c(Cl)c4F)ncnc3cc2OC)CC1`: the pIC50 at EGFR (human) [1] was 8.10. Compared with the last compound, the pIC50 is 0.74 log units higher.

Take `C=CC(=O)N1CC[C@@H](Oc2cc3c(Nc4ccc(F)c(Cl)c4F)ncnc3cc2OC)C[C@@H]1C(=O)OC`: the pIC50 at EGFR (human) [1] was 9.15; in assay [2], 8.27.

Take `COc1cc2ncnc(Nc3ccc(F)c(Cl)c3F)c2cc1OC1CCN(C(=O)/C=C/C(=O)NO)CC1`: the pIC50 against EGFR (human) [1] was 6.73.

In turn, `C=CC(=O)Nc1cccc(Nc2ncnc3cc(OC)c(OC4CCN(C(=O)C=C)CC4)cc23)c1` had a pIC50 at EGFR (human) [1] of 6.40.

`COc1cc2ncnc(Nc3ccc(F)c(Cl)c3F)c2cc1OC1CCN(C(=O)/C=C\C(=O)O)CC1`: the pIC50 at EGFR (human) [1] is 7.39. Against the preceding compound, the pIC50 is 0.99 log units higher.

For the compound `C=CC(=O)N1CC(Oc2cc3c(Nc4ccc(F)c(Cl)c4F)ncnc3cc2OCCOC)C1`, on EGFR (human) [1], the pIC50 was 6.05.

As usually defined, the pIC50 is the negative decadic logarithm of the IC50, by convention in mol/L. The low end stands for a high IC50, the high end for a low IC50.

For the origin of these results see the Kinase Knowledgebase extract (Sharma et al. 2016).
